Measured values from article PMC12494099, “Discovery and Characterization of Novel IKZF1/3 Glue Degraders against Multiple Hematological Cancer Cell Lines” (Oncology Research, 2025).

Experiments:
Format in all cases: cell-based
[1] = molecular target: T1, IKZF1-HiBiT (Homo sapiens, UniProt Q13422+Q96SW2); assay: Quantitative degradation assay using the HiBiT system (HEK293T); conditions: for reduction in IKZF1: 1 μM, time course; for DC50 / Dmax: HEK293T IKZF1-HiBiT, 24 h; for Dmax: HEK-293T, read-out: maximal degradation (Dmax) on IKZF1
T1 construct: expressed in transfected cells; host or cells: HEK293T
T1 sequence (Q13422 whole entry): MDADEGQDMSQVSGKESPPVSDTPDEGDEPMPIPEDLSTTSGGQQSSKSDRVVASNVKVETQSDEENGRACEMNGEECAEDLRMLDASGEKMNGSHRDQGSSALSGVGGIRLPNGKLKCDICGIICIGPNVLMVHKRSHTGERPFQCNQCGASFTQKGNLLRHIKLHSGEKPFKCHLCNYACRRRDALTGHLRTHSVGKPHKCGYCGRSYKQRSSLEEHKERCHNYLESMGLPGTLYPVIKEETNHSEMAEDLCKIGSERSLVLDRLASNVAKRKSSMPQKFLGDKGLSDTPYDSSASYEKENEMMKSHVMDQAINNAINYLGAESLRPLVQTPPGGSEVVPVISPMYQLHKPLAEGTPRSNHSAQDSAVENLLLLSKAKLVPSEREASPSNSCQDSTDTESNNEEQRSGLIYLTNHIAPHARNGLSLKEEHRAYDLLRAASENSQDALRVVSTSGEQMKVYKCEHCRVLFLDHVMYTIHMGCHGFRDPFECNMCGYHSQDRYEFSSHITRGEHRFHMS
T1 sequence (Q96SW2 whole entry): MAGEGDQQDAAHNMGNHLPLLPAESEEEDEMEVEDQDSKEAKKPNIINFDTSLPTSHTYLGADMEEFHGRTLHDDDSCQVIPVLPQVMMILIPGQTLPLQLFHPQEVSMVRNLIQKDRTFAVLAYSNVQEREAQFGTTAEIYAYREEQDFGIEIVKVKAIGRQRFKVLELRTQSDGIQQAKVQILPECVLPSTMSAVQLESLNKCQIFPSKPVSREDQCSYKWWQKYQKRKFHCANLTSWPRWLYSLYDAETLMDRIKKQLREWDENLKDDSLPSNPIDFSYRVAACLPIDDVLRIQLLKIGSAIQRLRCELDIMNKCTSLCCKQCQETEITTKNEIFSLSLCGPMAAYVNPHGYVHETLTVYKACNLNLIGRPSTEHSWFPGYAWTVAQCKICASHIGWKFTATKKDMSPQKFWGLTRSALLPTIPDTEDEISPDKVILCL
T1 sequence (Q16531 whole entry partner): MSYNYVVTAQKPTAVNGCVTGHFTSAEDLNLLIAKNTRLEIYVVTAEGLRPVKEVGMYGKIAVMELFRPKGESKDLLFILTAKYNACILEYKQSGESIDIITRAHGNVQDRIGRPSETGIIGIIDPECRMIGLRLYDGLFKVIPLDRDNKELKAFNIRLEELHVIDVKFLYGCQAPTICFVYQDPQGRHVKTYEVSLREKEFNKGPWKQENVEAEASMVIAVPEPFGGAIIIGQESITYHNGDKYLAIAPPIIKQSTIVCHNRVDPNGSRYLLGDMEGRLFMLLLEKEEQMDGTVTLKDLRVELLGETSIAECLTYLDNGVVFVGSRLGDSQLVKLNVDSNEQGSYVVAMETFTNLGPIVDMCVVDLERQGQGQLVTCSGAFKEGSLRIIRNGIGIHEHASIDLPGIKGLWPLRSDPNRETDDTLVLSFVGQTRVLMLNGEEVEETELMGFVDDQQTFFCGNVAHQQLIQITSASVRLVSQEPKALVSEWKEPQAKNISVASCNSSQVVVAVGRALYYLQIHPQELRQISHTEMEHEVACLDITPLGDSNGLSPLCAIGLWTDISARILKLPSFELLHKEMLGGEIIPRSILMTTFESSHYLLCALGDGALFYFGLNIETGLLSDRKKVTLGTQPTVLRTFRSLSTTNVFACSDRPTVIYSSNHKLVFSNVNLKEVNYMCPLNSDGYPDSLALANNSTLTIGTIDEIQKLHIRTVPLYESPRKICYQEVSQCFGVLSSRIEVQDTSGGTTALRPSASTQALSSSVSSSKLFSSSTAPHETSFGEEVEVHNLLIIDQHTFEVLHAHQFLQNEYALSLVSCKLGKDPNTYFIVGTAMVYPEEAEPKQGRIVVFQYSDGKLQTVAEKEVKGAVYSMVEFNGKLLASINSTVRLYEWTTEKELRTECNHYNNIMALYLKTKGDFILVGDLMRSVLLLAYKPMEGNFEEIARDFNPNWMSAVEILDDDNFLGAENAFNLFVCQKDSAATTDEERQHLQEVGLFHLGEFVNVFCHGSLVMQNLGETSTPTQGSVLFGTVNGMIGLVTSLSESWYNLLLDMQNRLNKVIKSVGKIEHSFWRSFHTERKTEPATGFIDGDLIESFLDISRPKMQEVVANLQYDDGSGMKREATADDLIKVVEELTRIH
Protocol: (§1) An in vitro quantitative degradation assay utilizing the HiBiT system was carried out as previously described. To evaluate the degradation of IKZF1, IKZF2, and IKZF3 proteins, HEK293T cell lines stably expressing IKZF1-, IKZF2-, IKZF3-, GSPT1- or CK1α-HiBiT were cultured in 96-well plates at 12,000 cells per well. […] After the treatment, cell lysis was carried out using the Nano-Glo HiBiT Lytic Detection System (#N3040, Promega). All lysis operations were strictly carried out according to the manufacturer’s specific protocol. Then, the SpectraMax iD3 instrument (Molecular Devices, San Jose, CA, USA) was used to detect the luminescent signals released by the HiBiT-tagged neosubstrates.

[2] = molecular target: T2, IKZF3-HiBiT (Homo sapiens, UniProt Q96SW2+Q9UKT9); assay: as above; conditions: for reduction in IKZF3: 1 μM, time course; for DC50 / Dmax: HEK293T IKZF3-HiBiT, 24 h; for Dmax: HEK-293T, read-out: maximal degradation (Dmax) on IKZF3
T2 construct: expressed in transfected cells; host or cells: HEK293T
T2 sequence (Q9UKT9 whole entry): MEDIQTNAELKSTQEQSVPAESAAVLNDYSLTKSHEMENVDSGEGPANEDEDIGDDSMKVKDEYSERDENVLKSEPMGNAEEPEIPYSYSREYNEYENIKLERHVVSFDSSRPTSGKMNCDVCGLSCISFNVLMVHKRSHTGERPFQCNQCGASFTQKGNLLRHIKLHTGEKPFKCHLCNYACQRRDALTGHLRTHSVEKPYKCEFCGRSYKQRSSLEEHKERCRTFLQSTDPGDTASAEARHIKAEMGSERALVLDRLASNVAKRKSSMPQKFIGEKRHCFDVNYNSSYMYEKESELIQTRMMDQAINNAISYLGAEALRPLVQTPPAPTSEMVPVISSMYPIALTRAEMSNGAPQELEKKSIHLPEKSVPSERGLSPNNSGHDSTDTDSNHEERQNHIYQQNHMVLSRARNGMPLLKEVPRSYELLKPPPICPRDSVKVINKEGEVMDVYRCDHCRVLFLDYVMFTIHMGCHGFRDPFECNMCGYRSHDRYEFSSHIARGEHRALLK
T2 sequence (Q96SW2 whole entry): as the sequence (Q96SW2 whole entry) above
T2 sequence (Q16531 whole entry partner): as the sequence (Q16531 whole entry partner) above
Protocol: as §1

[3] = molecular target: T3, GSPT1-HiBiT (Homo sapiens, UniProt P15170); assay: as above; conditions: increased dosing to 10 μM, 24 h
T3 construct: expressed in transfected cells; host or cells: HEK293T
T3 sequence (Q96SW2 whole entry partner): as the sequence (Q96SW2 whole entry) above
T3 sequence (Q16531 whole entry partner): as the sequence (Q16531 whole entry partner) above
T3 sequence (P15170 whole entry): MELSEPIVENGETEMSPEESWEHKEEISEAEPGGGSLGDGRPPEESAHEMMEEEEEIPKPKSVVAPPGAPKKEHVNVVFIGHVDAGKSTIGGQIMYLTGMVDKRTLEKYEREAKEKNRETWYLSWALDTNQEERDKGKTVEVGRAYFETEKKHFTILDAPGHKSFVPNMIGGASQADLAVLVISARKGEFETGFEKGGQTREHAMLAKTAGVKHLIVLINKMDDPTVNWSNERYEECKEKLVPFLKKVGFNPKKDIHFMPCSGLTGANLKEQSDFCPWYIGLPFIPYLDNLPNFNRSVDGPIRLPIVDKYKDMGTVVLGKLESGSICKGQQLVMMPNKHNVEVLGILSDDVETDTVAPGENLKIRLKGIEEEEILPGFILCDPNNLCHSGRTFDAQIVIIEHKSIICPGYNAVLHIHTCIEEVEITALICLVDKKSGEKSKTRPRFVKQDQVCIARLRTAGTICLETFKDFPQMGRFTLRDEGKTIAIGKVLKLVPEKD
Protocol: (§2) An in vitro quantitative degradation assay utilizing the HiBiT system was carried out as previously described. To evaluate the degradation of IKZF1, IKZF2, and IKZF3 proteins, HEK293T cell lines stably expressing IKZF1-, IKZF2-, IKZF3-, GSPT1- or CK1α-HiBiT were cultured in 96-well plates at 12,000 cells per well. The cells were treated with different concentrations of the test compounds (MGD-A7 and MGD-C9) with concentrations of 0, 0.01, 0.033, 0.1, 0.33, 1, 3.3, 10 and 33 μM for the specified time intervals. After the treatment, cell lysis was carried out using the Nano-Glo HiBiT Lytic Detection System (#N3040, Promega). All lysis operations were strictly carried out according to the manufacturer’s specific protocol. Then, the SpectraMax iD3 instrument (Molecular Devices, San Jose, CA, USA) was used to detect the luminescent signals released by the HiBiT-tagged neosubstrates.

[4] = molecular target: T4, IKZF2-HiBiT (Homo sapiens, UniProt Q9UKS7); assay: as above; conditions: dose response 24 h and time course 1 µM
T4 construct: expressed in transfected cells; host or cells: HEK293T
T4 sequence (Q96SW2 whole entry partner): as the sequence (Q96SW2 whole entry) above
T4 sequence (Q16531 whole entry partner): as the sequence (Q16531 whole entry partner) above
T4 sequence (Q9UKS7 whole entry): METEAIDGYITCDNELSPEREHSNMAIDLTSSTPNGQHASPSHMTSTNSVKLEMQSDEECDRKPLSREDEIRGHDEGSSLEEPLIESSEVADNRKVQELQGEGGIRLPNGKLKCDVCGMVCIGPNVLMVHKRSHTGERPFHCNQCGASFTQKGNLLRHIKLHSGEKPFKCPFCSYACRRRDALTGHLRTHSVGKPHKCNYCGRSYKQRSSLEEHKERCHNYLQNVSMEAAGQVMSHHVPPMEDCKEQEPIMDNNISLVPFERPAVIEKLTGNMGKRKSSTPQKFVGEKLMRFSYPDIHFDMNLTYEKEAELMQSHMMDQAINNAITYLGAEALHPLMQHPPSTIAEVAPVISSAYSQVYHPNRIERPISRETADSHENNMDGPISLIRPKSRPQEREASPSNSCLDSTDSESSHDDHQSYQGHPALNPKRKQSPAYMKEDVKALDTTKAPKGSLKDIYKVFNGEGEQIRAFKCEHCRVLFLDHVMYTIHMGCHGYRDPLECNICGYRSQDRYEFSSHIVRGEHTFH
Protocol: as §2

[5] = molecular target: T5, CK1α-HiBiT (Homo sapiens, UniProt P48729); assay: as above; conditions: increased dosing to 10 μM, 24 h
T5 construct: expressed in transfected cells; host or cells: HEK293T
T5 sequence (Q96SW2 whole entry partner): as the sequence (Q96SW2 whole entry) above
T5 sequence (Q16531 whole entry partner): as the sequence (Q16531 whole entry partner) above
T5 sequence (P48729 whole entry): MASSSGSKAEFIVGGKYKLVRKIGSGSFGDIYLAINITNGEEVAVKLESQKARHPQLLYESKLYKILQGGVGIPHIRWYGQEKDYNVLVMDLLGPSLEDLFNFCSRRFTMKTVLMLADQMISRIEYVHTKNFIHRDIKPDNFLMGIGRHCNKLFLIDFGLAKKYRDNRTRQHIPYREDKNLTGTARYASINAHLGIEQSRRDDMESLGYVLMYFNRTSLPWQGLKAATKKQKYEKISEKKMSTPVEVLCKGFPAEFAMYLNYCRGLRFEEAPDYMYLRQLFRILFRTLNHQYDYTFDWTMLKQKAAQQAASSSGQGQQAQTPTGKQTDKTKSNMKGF
Protocol: as §2

[6] = molecular target: IKZF2 (Homo sapiens, UniProt Q9UKS7); assay: MS-based quantitative proteomics in NCI-H929 cells; set-up: endogenous in cells; host or cells: NCI-H929; conditions: NCI-H929, 10 μM, 4 h; not notably downregulated
Chain of IKZF2 (Q96SW2 whole entry partner): as the sequence (Q96SW2 whole entry) above
Chain of IKZF2 (Q16531 whole entry partner): as the sequence (Q16531 whole entry partner) above
Chain of IKZF2 (Q9UKS7 whole entry): as the sequence (Q9UKS7 whole entry) above
Protocol: NCI-H929 cells were treated with either 10 μM DMSO or 10 μM MGD-C9 for 4 h. Post-treatment, the cells were washed with PBS (pH = 7.2–7.4, 1×) and then lysed in 8M Urea (UA) (comprising 8M urea, 100 mM Tris-HCl, pH = 8.0). Subsequently, the cell lysate was subjected to centrifugation on a high-speed freezing microcentrifuge (#CF1524R; SCILOGEX, Meriden, CT, USA) at […], and the supernatant was collected. Subsequently, the collected supernatant was treated with 10 mM tris (2-carboxyethyl) phosphine hydrochloride (TCEP) to reduce it for 30 min. Following this, cysteine alkylation was performed using 50 mM 2-chloroacetamide (CAA) for an additional 30 min. The denatured proteins were then digested with trypsin (1 μg/μL) at an enzyme-to-protein ratio of 1:50 and incubated at 37°C overnight. […]
The peptide mixtures were analyzed using an EASY-nLC 1200 liquid chromatography system (Thermo Fisher Scientific, WLM, MA, USA) equipped with a custom-made 15 cm C18 column (150 μm ID, 1.9 μm particle size, 100 Å pore size). […] The peptide mixtures were then analyzed using a Q Exactive HF mass spectrometer (Thermo Fisher Scientific). […]
Label-free MS raw data were processed using MaxQuant (v2.4) against the UniProt Human database (https://www.uniprot.org/, downloaded May 2024; 20,434 entries). […] Protein groups output by MaxQuant were further analyzed in R (v4.2.1). […]

SMILES | reduction in IKZF1 ([1]; 12 h) [%] | DC50 [1] [nM] | Dmax [1] [%] | reduction in IKZF3 ([2]; 12 h) [%] | DC50 [2] [nM] | Dmax [2] [%] | degradation effect on luminescence signals of GSPT1-HiBit [3] | effect on luminescence signals from IKZF2-HiBit [4] | degradation effect on luminescence signals of CK1α-HiBit [5] | reduction in IKZF1 ([1]; 8 h) [%] | reduction in IKZF3 ([2]; 8 h) [%] | absolute [log2(fold change)] of IKZF2 [6]
CN1CCN(Cc2cccc(C(=O)NC3CCC(=O)NC3=O)c2)CC1 (stereo not shown) [MGD-A7, N-(2,6-dioxopiperidin-3-yl)-3-((4-methylpiperazin-1-yl)methyl)benzamide] | > 60 | 249 | 89.4 | > 80 | 110 | 86.4 | minimal degradation effects | minimal inhibition | minimal degradation effects |  |  | 
CN1CCN(Cc2cccc(C(=O)NC3CCC(=O)NC3=O)c2F)C(=O)C1 (stereo not shown) [MGD-C9, N-(2,6-dioxopiperidin-3-yl)-2-fluoro-3-((4-methyl-2-oxopiperazin-1-yl)methyl)benzamide] |  | 96 | 90.3 |  | 57 | 92.1 | minimal degradation effects | minimal inhibition | minimal degradation effects | > 60 | > 70 | less than 1
